Patent publication US9974776B2, “Estrogen receptor beta agonists for use in treating mesothelioma” (Karo Pharma AB, priority 2013, dated 2018)
Entries after “also recorded” stand apart in the source; their conditions may differ.

Columns and labels:
[1] = system: PARP1 cleavage; experiment: Western blot of PARP1 cleavage in MMP cells; assay type: cell-based, human; conditions: 10 nM two hours, wash-off, 50 μM cisplatin
Protocol: (§1) Cells were extracted with 1% NP-40 lysis buffer (1% NP-40, 150 mM NaCl, 50 mM Tris-HCl pH 8.5 mM EDTA, 10 mM NaF, 10 mM Na4P2O7, 0.4 mM Na3VO4) with freshly added protease inhibitors (10 μg/ml leupeptin, 4 μg/ml pepstatin and 0.1 Unit/ml aprotinin). For protein extraction from tissues, ˜100 mg of each sample were homogenized, using a Potter-Elvehjem homogenizer device, in 1% NP-40 lysis buffer. Lysates were centrifuged at 13.000×g for 10 minutes at 4° C. and the supernatants were collected and assayed for protein concentration with the Bio-Rad protein assay method.
(§2) Proteins were separated by SDS-PAGE under reducing conditions. Following SDS-PAGE, proteins were transferred to nitrocellulose, reacted with specific antibodies and then detected with peroxidase-conjugate secondary antibodies and chemioluminescent ECL reagent. Densitometric analysis was performed using the GS 250 Molecular Image (Bio-Rad).
(§3) Levels of PARP1, cleaved PARP1, AKT and phosphorylated AKT in the MMP cell cultures at 24 hours were also determined by Western blot analysis.

[2] = system: REN cells; experiment: Cell cycle analysis (propidium iodide, flow cytometry) in REN cells; assay type: cell-based, human; conditions: 10 nM 2 hours pre-treatment, then 100 μM cisplatin 24 hours
Protocol: For cell cycle/apoptosis analysis, 5×10^5 cells were seeded in tissue culture plates and treated with 100 μM cisplatin for 24 hours or pre-treated for 2 hours with 10 nM Compound (I) followed by wash-off and continued growth in normal medium±100 μM cisplatin, for additional 24 hours at 37° C. in a 5% CO2 atmosphere. After incubation, detached and suspended cells were harvested in complete RPMI and centrifuged at 500×g for 10 minutes. Pellets were washed with PBS, fixed in ice-cold 75% ethanol at 4° C., treated with […] RNAse A for 1 hour at 37° C., stained with 25 μg/mL propidium iodide and finally analyzed by using a flow cytometer FACS (Becton Dickinson, San Jose, Calif., USA) and Modfit software (Verity Software House, Topsham, Me., USA).
REN cells were treated for 24 hours with 100 μM cisplatin or pre-treated 2 hours with 10 nM Compound (I) followed by wash-off and continued growth in normal medium±100 μM cisplatin, for an additional 24 hours. Cell cycle analysis was performed as described above. Control cultures were maintained in normal growth medium. After treatments, cells were stained with propidium iodide and analysed for cellular DNA content by flow cytometry.

[3] = system: MMB cells; experiment: Proliferation assay in MMB cells; assay type: cell-based; conditions: 10 nM single agent, 24 and 48 hours
Protocol: (§4) Cells were seeded at a density of 10×10^4 cells/well in 6-well plates in RPMI medium supplemented with 10% FBS, 100 μg/ml streptomycin and 10 μg/ml penicillin and incubated over-night at 37° C. in a humidified environment containing 5% CO2 to allow adherence. Following treatment cells were trypsinized and stained with Trypan blue. The number of cells considered viable (unstained cells) was counted in a Bürker haemocytometer within 5 minutes after staining.

[4] = system: PARP1 cleavage; experiment: Western blot of PARP1 cleavage in REN cells; assay type: cell-based, human
Protocol: as §1, §2
Levels of PARP1, cleaved PARP1, AKT and phosphorylated AKT in REN cells treated for 24 hours with cisplatin (25, 50 and 100 μM) or pre-treated 2 hours with Compound (I) (10 nM) followed by wash-off and continued growth in normal medium±cisplatin (25, 50 and 100 μM), for an additional 24 hours were also determined by Western blot analysis and relative densitometry. Total AKT and Tubulin staining were used for normalization. PARP1 cleavage was analysed as it is an indicator of apoptotic cell death. As increased AKT activity has been implicated in the control of proliferation, apoptosis and cisplatin resistance (Pinton G., et al, PLoS One (2012) 7:e36856), AKT activation status following different treatments was also analysed.

[5] = system: MSTO-211H cells; experiment: Proliferation assay in ERβ negative MSTO-211H cells; assay type: cell-based; conditions: 10 nM single agent, 24 and 48 hours
Protocol: as §4

[6] = system: PARP1 cleavage; experiment: Western blot of PARP1 cleavage in MET5A cells; assay type: cell-based; conditions: 10 nM 2 hours pre-treatment, cisplatin 25, 50, 100 μM
Protocol: as §1, §2
(§5) Levels of PARP1, cleaved PARP1, AKT and phosphorylated AKT in the MET5A cell cultures at 24 hours were also determined by Western blot analysis and relative densitometry.

[7] = system: MMP cells; experiment: Proliferation assay (wash-off experiment) in MMP cells; assay type: cell-based, human; conditions: 10 nM 2 hours, 50 μM cisplatin 24 hours
Protocol: as §4
(§6) Cell cultures were pretreated with Compound (I) for 1-16 hours (depending on experiment) followed by wash-off and then replenished with normal growth medium±cisplatin, pemetrexed or cisplatin/pemetrexed. Total incubation time was 24-72 hours (depending on experiment). Control cultures were maintained in normal growth medium without added drug. The number of viable cells was determined as described for the proliferation assay.
50 μM cisplatin was added to MMP cell cultures pre-treated for 2 hours with 10 nM Compound (I) (wash-off experiment). The number of viable cells at 24 hours was determined as described for the proliferation assay above. Control cultures were maintained in normal growth medium; growth medium plus Compound (I) (10 nM); and growth medium plus cisplatin (50 μM).

[8] = system: AKT phosphorylation; experiment: Western blot of AKT phosphorylation in MMP cells; assay type: cell-based, human; conditions: 10 nM 2 hours pre-treatment, ± 50 μM cisplatin
Protocol: as §1, §2, §3

[9] = system: MET5A cells; experiment: Proliferation assay in non-malignant mesothelial MET5A cells; assay type: cell-based
Protocol: as §4, §6

[10] = system: AKT phosphorylation; experiment: Western blot of AKT phosphorylation in MET5A cells; assay type: cell-based; conditions: 10 nM 2 hours pre-treatment
Protocol: as §1, §2, §5

[11] = system: H2596 cells; experiment: Proliferation assay in H2596 cells; assay type: cell-based; conditions: 10 nM single agent, 24 and 48 hours; very low ERβ
Protocol: as §4

## Cc1noc(C)c1-c1c(/C(N)=N/O)c2ccccc2n1-c1ccc(O)cc1 [Compound (I)]
[1]
  level of cleaved PARP1 in MMP cells: most significant increase in the level of cleaved PARP1
[2]
  cell cycle phase distribution: significant and efficient blockage of the cell cycle in the G0/G1 phase and inhibition of cells entering the S-phase
  percentage of dead cells: significant higher percentage of dead cells
[3]
  inhibition of proliferation, MMB cells: significantly (p≤0.05) inhibited proliferation
[4]; 10 nM 2 hours prior to cisplatin (25, 50, 100 μM) 24 hours
  appearance of cleaved PARP1, pre-treatment then cisplatin: greatest effect on the appearance of cleaved PARP1
[4]; agent alone
  PARP1 cleavage, single agent: neither cisplatin nor Compound (I) alone resulted in significant PARP1 cleavage
[5]
  inhibition of proliferation, MSTO-211H cells: no response
[6]
  percentage of cleaved PARP1 in MET5A cells: reduced the percentage of cleaved PARP1 in cells exposed to all concentrations of cisplatin
[7]
  anti-proliferative effect in MMP cells, pre-treatment then cisplatin: enhanced anti-proliferative effect of cisplatin was observed; also recorded: synergistic growth inhibition compared to Compound (I) or cisplatin alone
[8]
  AKT phosphorylation in MMP cells: significantly reduced AKT phosphorylation both in the absence and in the presence of cisplatin
[9]; 10 nM 2 hours pre-treatment, wash-off, cisplatin 25, 50, 100 μM 24 hours
  effect on cisplatin toxicity in MET5A cells: protective effect was observed when Compound (I) pre-treatment was combined with low doses of cisplatin; also recorded: diminished and/or counteracted the toxicity of cisplatin
[9]; 10 nM 2 hours, wash-off, normal medium 24 hours
  MET5A cell proliferation or viability, alone: no effect on MET5A cell proliferation or viability
[9]; 10 nM single agent, 24 and 48 hours, high endogenous ERβ
  inhibition of proliferation, MET5A cells: no inhibitory effect was observed
[10]; no cisplatin
  basal pAKT levels in MET5A control cells: no effect on basal pAKT levels
[10]; then cisplatin
  effect on cisplatin-mediated inhibition of pAKT in MET5A cells: antagonized the cisplatin-mediated inhibition of pAKT
[11]
  inhibition of proliferation, H2596 cells: weak response
